Tests used:
[1] = system: HE cells; test: Single-cell RNAseq of treated HE cells at day 2 of subculture; type: cell-based, human
Description: Sorted HE, EHT and HSC-like cells as well magnetically selected (Miltenyi Biotec) cord blood CD34^+ cells were plated onto Matrigel (16 μg/cm^2, Corning)-coated 96-well flat bottom plates in HE medium (Ditadi, A. & Sturgeon, C. M. Directed differentiation of definitive hemogenic endothelium and hematopoietic progenitors from human pluripotent stem cells. Methods 101, 65-72 (2016)) with 1% penicillin-streptomycin and kept in a humidified incubator at 37° C., 5% CO2, 4% O2 overnight. The following day (day 0), wells were washed twice with PBS and fresh HE medium was added, together with UK5099 (10 μM) or DCA (3 mM), where indicated. On day 1 and 2 (as indicated), cells were washed twice with PBS 0.04% UltraPure BSA and collected after a 2-minute incubation at 37° C. with StemPro Accutase Cell Dissociation Reagent. Cells were spun down, resuspended in PBS 0.04% UltraPure BSA, counted (yield between 8,000-18,000 cells) and library preparation was conducted according to the Chromium Single Cell 3′ Reagent kit v3 instructions (10× Genomics). Sequencing was performed on a NOVASeq 6000 from Illumina with the run parameters (28-8-0-91) recommended by 10× Genomics with a final loading concentration of 300 pM of the pooled libraries. Human Umbilical Cord Blood samples were collected from Skine University Hospital (Lund and Malmo) and Helsingborg Hospital with informed consents according to guidelines approved by the regional ethical committee.
The data was processed and analyzed using Seurat v3.1.0, where cells were allowed to have up to 20% mitochondrial reads prior to log-normalization and finding the top 500 variable genes using the “vst” method. Cell cycle scores were calculated and the data was scaled regressing on mitochondrial content and the difference of the S and G2M score. Principal components were calculated prior to calculating a UMAP. Pseudotime trajectories describing two developmental routes were identified in our EHT dataset using Slingshot (Street, K. et al. Slingshot: cell lineage and pseudotime inference for single-cell transcriptomics. BMC Genomics 19,477 (2018)) along which the cells were ordered. The cells were then binned along each trajectory where the cell type composition of each bin was calculated as percentages. Cord blood CD34+ cells were mapped to our data and labeled using scCoGAPS (Stein-O'Brien, G. L. et al. Decomposing Cell Identity for Transfer Learning across 23 Cellular Measurements, Platforms, Tissues, and Species. Cell Syst 8, 395-411.e8 (2019)). CS13 data from Zeng et al. (Zeng, Y. et al. Tracing the first hematopoietic stem cell generation in human embryo by single-cell RNA sequencing. Cell Res 1-14 (2019)) was read and processed to make a UMAP from which the cells they name as “AEC” and “Hem” were identified. These 99 cells were mapped to our data and labeled using SCMAP59. Carnegie Stage 13 data from Zeng et al. was mapped to our EHT dataset using scCoGAPS where 10 patterns were identified, named according to their respective weights (as shown in Table 1) and then projected using projectR. […] The CS 13 dorsal aorta dataset from Zeng et al. was mapped onto our EHT dataset using scCoGAPS. The patterns resulting from this analysis were classified as the cell types described by Zeng et al.
Each cell was assigned to the group that achieved the highest weight. […]

[2] = system: HE cells; test: Colony forming unit assay of subcultured HE cells; type: cell-based, human
Description: Subcultured HE cells were treated with StemPro Accutase Cell Dissociation Reagent for 2 minutes at 37° C. and dissociated cells were resuspended in 3 ml Methocult H4230 (STEMCELL Technologies, France) (prepared according to manufacturer's instructions, with 20 mL Iscove's Modified Dulbecco's Medium containing 2.5 μg hSCF, 5 μg GM-CSF, 2.5 μg IL-3 and 500 U EPO). Each mixture was divided onto 2 wells of a non-tissue culture treated 6-well plate. Following a 12-day incubation in a humidified incubator at 37° C., 5% CO2, 20% O2, colonies were morphologically distinguished and scored. For globin analysis, colonies in Methocult wells were harvested with PBS, washed thoroughly and frozen in RLT buffer with β-mercaptoethanol. Following RNA extraction and RT (Qiagen), gene expression was assessed with taqman probes by q-PCR. The taqman probes used for this assay are HBA1/2 (Hs00361191_g1), HBE1 (Hs00362216_m1), HBG2/1 (Hs00361131_g1) and KLF1 (Hs00610592_m1).

O=C(O)C(Cl)Cl [DCA, dichloroacetate]
less treated HE cells in cluster 7 compared to the control ([1]; day 2, DCA 3 mM): 35% | ratio of CFU-E colonies to the sum of CFU-G, CFU-GM and CFU-M colonies, lower than control ([2]; 6 days subculture, DCA 3 mM): more than 3 fold

N#CC(=Cc1cn(-c2ccccc2)c2ccccc12)C(=O)O [UK5099, 2-Cyano-3-(1-phenyl-1H-indol-3-yl)-2-propenoic acid]
LSD1, GFI1 and GFI1B expression ([1]; as compared to DCA-treated cells): higher levels | average expression levels of erythroid lineage genes (RYK, KLF3, TAL1, GATA2, ZFPM1, KLF1, NFE2, ANK1, HBQ1) ([1]; clusters 6 and 7): higher | percentage of cells in cluster 6 ([1]; day 2): constant between conditions | more treated HE cells in cluster 7 compared to the control ([1]; day 2, UK5099 10 μM): 38% | granulocyte and macrophage colonies (CFU-G, GM and M) ([2]; 3 or 6 days of UK5099): decreased | ratio of CFU-E colonies to the sum of CFU-G, CFU-GM and CFU-M colonies, higher than control ([2]; 6 days subculture, UK5099 10 μM): 20 fold | erythroid colony (CFU-E) formation ([2]; UK5099 3 or 6 days, DCA 6-day treatment, vs untreated): significantly increased

From US20250129334A1, “LINEAGE SPECIFICATION DURING STEM CELL TRANSITION” (Amniotics AB, priority 2021, published 2025)
